Experiment [1] deals with hJAK2 (Homo sapiens (Human), UniProt O60674). Put plainly: hJAK2 LANCE TR-FRET enzymatic assay. The experiment is classed as biochemical. The note with it: read-out: JAK2 IC50. (In general: In TR-FRET formats the signal depends on donor and acceptor labels being close together.)
For experiment [2], the target named is IKKε (Homo sapiens (Human), UniProt Q14164). Put plainly: IKKε TR-FRET enzymatic assay. The experiment is classed as biochemical. Particulars: 2x Km ATP, geometric mean of at least four determinations, read-out: IKKe IC50.
The target of experiment [3] is TBK1 (Homo sapiens (Human), UniProt Q9UHD2). Nature of the experiment: TBK1 TR-FRET enzymatic assay. The note with it: read-out: TBK1 IC50, 2x Km ATP, geometric mean of at least four determinations.
Description: Enzymatic activity of IKKε and TBK1 was measured using a homogeneous time resolved fluorescence resonance energy transfer (TR-FRET) assay that monitors enzyme dependent phosphorylation of a biotinylated serine/threonine peptide substrate. […] TBK1 and IKKε were expressed and purified as full length recombinant proteins. Detection reagents for the assay were purchased from Cisbio. […] After an assay reaction time of 240 minutes at 25° C., reactions were terminated with EDTA.
All IC50 values represent geometric mean values of a minimum of four determinations.

pIC50: −log10 of the molar value.

Sequence of IKKε (Q14164 whole entry): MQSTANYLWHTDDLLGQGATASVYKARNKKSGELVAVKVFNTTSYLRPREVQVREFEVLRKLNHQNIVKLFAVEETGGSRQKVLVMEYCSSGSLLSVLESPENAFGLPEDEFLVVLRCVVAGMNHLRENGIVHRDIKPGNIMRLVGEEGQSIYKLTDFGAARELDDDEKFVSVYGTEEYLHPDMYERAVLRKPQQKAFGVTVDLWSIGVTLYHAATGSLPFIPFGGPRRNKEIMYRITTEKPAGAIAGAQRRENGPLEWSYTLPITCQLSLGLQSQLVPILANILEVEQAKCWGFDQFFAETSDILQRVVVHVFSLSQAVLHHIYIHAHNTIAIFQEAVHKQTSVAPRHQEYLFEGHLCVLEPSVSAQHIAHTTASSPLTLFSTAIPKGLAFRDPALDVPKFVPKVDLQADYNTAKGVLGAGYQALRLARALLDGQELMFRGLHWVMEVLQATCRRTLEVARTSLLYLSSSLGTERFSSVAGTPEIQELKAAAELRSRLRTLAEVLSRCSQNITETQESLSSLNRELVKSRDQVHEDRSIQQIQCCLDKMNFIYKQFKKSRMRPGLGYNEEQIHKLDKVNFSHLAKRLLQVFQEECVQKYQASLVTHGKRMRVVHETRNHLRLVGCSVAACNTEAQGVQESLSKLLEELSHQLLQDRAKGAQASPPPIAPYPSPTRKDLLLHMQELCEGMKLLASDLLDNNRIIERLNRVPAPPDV
Sequence of hJAK2 (O60674 whole entry): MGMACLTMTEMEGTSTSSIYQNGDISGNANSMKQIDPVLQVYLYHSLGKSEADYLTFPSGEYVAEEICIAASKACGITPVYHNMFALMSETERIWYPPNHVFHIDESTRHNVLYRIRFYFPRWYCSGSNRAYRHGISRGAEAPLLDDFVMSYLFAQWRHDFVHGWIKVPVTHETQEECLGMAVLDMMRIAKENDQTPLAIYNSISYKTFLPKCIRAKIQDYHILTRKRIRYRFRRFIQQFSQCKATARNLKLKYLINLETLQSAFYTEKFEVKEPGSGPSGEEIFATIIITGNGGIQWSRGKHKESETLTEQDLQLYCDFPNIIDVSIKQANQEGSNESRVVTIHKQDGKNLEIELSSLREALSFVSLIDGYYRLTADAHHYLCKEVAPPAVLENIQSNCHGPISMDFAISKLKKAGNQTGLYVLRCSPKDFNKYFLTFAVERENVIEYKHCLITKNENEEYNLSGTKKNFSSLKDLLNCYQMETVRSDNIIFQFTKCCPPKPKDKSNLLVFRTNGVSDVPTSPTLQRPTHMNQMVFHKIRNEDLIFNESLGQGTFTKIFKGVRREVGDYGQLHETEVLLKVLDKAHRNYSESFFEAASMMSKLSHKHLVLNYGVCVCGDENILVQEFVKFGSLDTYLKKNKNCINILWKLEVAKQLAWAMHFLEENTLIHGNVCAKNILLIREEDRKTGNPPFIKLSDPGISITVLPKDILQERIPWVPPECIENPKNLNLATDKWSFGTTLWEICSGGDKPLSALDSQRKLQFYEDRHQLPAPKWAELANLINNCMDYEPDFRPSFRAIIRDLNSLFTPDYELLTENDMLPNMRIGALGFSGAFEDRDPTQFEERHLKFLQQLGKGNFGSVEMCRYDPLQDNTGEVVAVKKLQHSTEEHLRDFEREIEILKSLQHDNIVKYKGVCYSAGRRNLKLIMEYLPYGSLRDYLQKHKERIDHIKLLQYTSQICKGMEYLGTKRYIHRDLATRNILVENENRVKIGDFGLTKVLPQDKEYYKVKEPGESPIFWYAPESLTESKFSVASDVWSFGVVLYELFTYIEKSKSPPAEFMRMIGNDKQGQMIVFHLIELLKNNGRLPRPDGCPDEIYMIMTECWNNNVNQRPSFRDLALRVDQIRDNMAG
Sequence of TBK1 (Q9UHD2 whole entry): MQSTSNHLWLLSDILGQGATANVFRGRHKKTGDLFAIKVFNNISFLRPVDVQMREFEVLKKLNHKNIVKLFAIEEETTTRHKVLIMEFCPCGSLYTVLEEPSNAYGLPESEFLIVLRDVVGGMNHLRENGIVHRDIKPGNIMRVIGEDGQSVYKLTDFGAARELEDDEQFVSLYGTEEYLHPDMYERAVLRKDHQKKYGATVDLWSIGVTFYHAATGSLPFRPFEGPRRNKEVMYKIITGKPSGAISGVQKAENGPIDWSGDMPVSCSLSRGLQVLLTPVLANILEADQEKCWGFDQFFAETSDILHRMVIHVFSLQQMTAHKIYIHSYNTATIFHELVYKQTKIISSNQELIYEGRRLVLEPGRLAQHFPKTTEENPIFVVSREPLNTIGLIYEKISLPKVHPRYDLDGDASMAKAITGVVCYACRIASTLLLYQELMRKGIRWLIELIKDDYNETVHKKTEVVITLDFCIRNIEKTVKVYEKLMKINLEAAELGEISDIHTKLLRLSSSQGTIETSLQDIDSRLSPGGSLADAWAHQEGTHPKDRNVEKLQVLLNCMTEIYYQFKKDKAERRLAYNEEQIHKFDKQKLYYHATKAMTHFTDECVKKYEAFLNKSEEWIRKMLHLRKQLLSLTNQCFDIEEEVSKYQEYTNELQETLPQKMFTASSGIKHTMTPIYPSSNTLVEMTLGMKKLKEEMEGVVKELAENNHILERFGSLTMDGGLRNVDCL

In the case of “2-(((3R,4S)-1-((R)-4,4-difluoropyrrolidine-2-carbonyl)-3-fluoropiperidin-4-yl)oxy)-5-(4-((4-(4-(oxetan-3-yl)piperazin-1-yl)phenyl)amino)-1,3,5-triazin-2-yl)benzonitrile [Example 132]”, the pIC50 (usually the IC50 on a negative log10 scale, so that one unit is a factor of ten) in experiment [1] was 6.00; in experiment [2], 7.29; in experiment [3] it was 7.60.
With `N#Cc1cc(-c2ncnc(Nc3cnn(C(F)F)c3)n2)ccc1O[C@H]1CCNC[C@H]1F` [Example 453, 5-(4-((1-(difluoromethyl)-1H-pyrazol-4-yl)amino)-1,3,5-triazin-2-yl)-2-(((3R,4S)-3-fluoropiperidin-4-yl)oxy)benzonitrile], in experiment [3], the pIC50 is 6.44.
With “2-(((3R,4S)-3-fluoro-1-((S)-pyrrolidine-2-carbonyl)piperidin-4-yl)oxy)-5-(4-((4-(4-(oxetan-3-yl)piperazin-1-yl)phenyl)amino)-1,3,5-triazin-2-yl)benzonitrile [Example 133]”, the pIC50 in experiment [1] and in experiment [2] was 6.00 in each case.

The record behind these values is patent publication US10253019B2, “Tank-binding kinase inhibitor compounds” (Gilead Sciences, Inc., priority 2014, dated 2019).
